Laboratory results: US10010581B2, “Syndecan peptides and polypeptides and uses thereof” (Wisconsin Alumni Research Foundation, priority 2012, dated 2018)

Assays:
[1] = tested on: HaCat human keratinocytes; test: total cell number, CellTiterGLO assay; type: cell-based; details: single peptide, concentrations as high as 30 μM, 4 or 7 days
Procedure: FIGS. 11A-F. SSTN treatment of normal (nontransformed) epithelial cells versus carcinoma (transformed) cells. Cells are plated for one day, then treated with either 3-30 μM […] (SSTN-I), 3-30 μM […] (SSTN-E), 3-30 μM SSTNHER2 (SSTN-H) or combinations of the three peptides, each at 10 μM to test their additive effect. […] The treatment times are chosen to reflect only modest effects of the peptides used singly, so that the more pronounced effect of peptides used in combination can still be observed. Treatment for longer times leads to significant cell death observed even with single peptides alone. (FIG. 11A) HaCat human keratinocytes, an example of a normal stratified epithelium, (FIG. 11B) UM-SCC47 cells, a squamous cell carcinoma derived from the tongue of a patient (a stratrified epithelium), (FIG. 11C) SCC25 cells, another squamous cell carcinoma from the tongue of a patient (FIG. 11D) MCF10A cells, a normal human breast epithelium, (FIG. 11E) MDA-MB-468 cells, a triple-negative (TN) breast carcinoma, and (FIG. 11F) SKBr3 cells, a HER2+ human breast carcinoma. Note that the “triple-negative” designation of the MDA-MB-468 carcinoma means the cells are negative for progesterone receptor, estrogen receptor and the HER2 kinase. Thus, they would not be expected to rely on HER2. Indeed, these cells are not affected by SSTNHER2, either alone or when combined with the other peptides. […]

SKBr3 cells = test: total cell number, CellTiterGLO assay; type: cell-based, human; details: 4 or 7 days
Procedure: (§1) FIGS. 11A-F. SSTN treatment of normal (nontransformed) epithelial cells versus carcinoma (transformed) cells. Cells are plated for one day, then treated with either 3-30 μM […] (SSTN-I), 3-30 μM […] (SSTN-E), 3-30 μM SSTNHER2 (SSTN-H) or combinations of the three peptides, each at 10 μM to test their additive effect. […] The treatment times are chosen to reflect only modest effects of the peptides used singly, so that the more pronounced effect of peptides used in combination can still be observed. Treatment for longer times leads to significant cell death observed even with single peptides alone. (FIG. 11A) HaCat human keratinocytes, an example of a normal stratified epithelium, (FIG. 11B) UM-SCC47 cells, a squamous cell carcinoma derived from the tongue of a patient (a stratrified epithelium), (FIG. 11C) SCC25 cells, another squamous cell carcinoma from the tongue of a patient (FIG. 11D) MCF10A cells, a normal human breast epithelium, (FIG. 11E) MDA-MB-468 cells, a triple-negative (TN) breast carcinoma, and (FIG. 11F) SKBr3 cells, a HER2+ human breast carcinoma. Note that the “triple-negative” designation of the MDA-MB-468 carcinoma means the cells are negative for progesterone receptor, estrogen receptor and the HER2 kinase. Thus, they would not be expected to rely on HER2. Indeed, these cells are not affected by SSTNHER2, either alone or when combined with the other peptides. […] Nonetheless, the other three carcinomas are inhibited by SSTNHER2, and this is enhanced when SSTNHER2 is combined with the other SSTN peptides, leading to obvious cell death (e.g., the number of cells at the end of the experiment are less than at the beginning).
(§2) Cells (5×10^4/well in a 24-well plate) were treated with activated TAT-peptide ([…]; (SEQ ID NO:18)), inactivated TAT-peptide ([…]; (SEQ ID NO:19)) or GST fusion protein (GST, GST-S1ED or GST-S4ED). Cells death was observed by trypan blue staining or Cell Tilter-GLO Cell Viability Assay (Promega).

SCC25 cells = test: total cell number, CellTiterGLO assay; type: cell-based, human; details: 4 or 7 days
Procedure: as §1, §2

MCF10A cells = test: total cell number, CellTiterGLO assay; type: cell-based, human; details: single peptide, concentrations as high as 30 μM, 4 or 7 days
Procedure: as §1, §2

UM-SCC47 cells = test: total cell number, CellTiterGLO assay; type: cell-based, human; details: 4 or 7 days
Procedure: as §1, §2

[2] = tested on: HaCat keratinocytes or MCF10A mammary epithelial cells; test: competition of LPA-induced haptotactic migration by GST fusion proteins or synthetic peptides (FIG. 10 summary); type: cell-based, human; details: 0.1 to 30 μM, 3 μM LPA
Procedure: FIGS. 10A-C. Schematic summary of experiments using either recombinant GST fusion proteins or synthetic peptides to disrupt Sdc1-dependent coupling of HER2 to α6β4 integrin necessary for LPA-induced haptotactic migration. GST-fusion proteins or synthetic peptides were added at concentrations ranging from 0.1 to 30 μM to the culture medium of human HaCat keratinocytes or MCF10A mammary epithelial cells in the presence or absence of 3 μM LPA. The ability of the constructs to inhibit the migration of the cells to close a scratch wound in confluent monolayers was determined and expressed as the concentration of inhibitor necessary to cause 50% inhibition of cell migration. (FIG. 10A) Competition using recombinant GST-fusion proteins. GST-Sdc1 fusion proteins bearing truncations or mutations were assessed for their competitive activity. […] (FIG. 10B) Competition with synthetic peptides. Peptides were purchased from commercial sources for testing as a putative synstatin inhibitory peptide (SSTNHER2). […] (FIG. 10C) Schematic representation of the active site in Sdc1. The active site is shown as a juxtamembrane site in the ectodomain of Sdc1. TM is the transmembrane domain and CYTO is the cytoplasmic domain. The sequence of a peptide derived from this site (SSTNHER2) is shown along with its homology across other mammalian Sdc1 species. The human STTNHER2 sequence is SEQ ID NO:23; the homology for STTNHER2 across mammals is SEQ ID NO:24.
HaCat or MCF10A cells were grown to confluence on 48 well-plates were starved for 6 hr by serum deprivation followed by introduction of a scratch wound in the monolayer using 200 μl pipette tip. Cells were cultured an additional 18 hr in DMEM containing mAb 3E1 (10 μg/ml) and goat anti-mouse IgG (50 μg/ml), EGF (10 ng/ml) or HGF (20 ng/ml) to cause cell migration in the presence or absence of inhibitors. Images were acquired using a PlanApo 20 (0.75 numerical aperture) objective and a Photometrics CoolSnap ES camera on a Nikon Eclipse TE2000U microscopy system and wound closure quantified.

Substance: SSTNHER2: synthetic peptide of human Sdc1 ectodomain amino acids 210-240 (SEQ ID NO:3), inhibits Sdc1 coupling of HER2 to α6β4 integrin (DFTFETSGENTAVVAVEPDRRNQSPVDQGAT; listed as Homo sapiens)
- growth or survival [1]: no effect
- total cell number, combination with the other SSTN peptides (SKBr3 cells; each peptide at 10 μM): enhanced
- proliferation and survival (SKBr3 cells; single peptide 3-30 μM): target the proliferation and survival
- total cell number, combination with the other SSTN peptides (SCC25 cells; each peptide at 10 μM): enhanced
- proliferation and survival (SCC25 cells; single peptide 3-30 μM): target the proliferation and survival
- growth or survival (MCF10A cells): no effect
- total cell number, combination with the other SSTN peptides (UM-SCC47 cells; each peptide at 10 μM): enhanced
- proliferation and survival (UM-SCC47 cells; single peptide 3-30 μM): target the proliferation and survival
- competitive (inhibitory) activity on haptotactic migration [2]: fully active
